Measured values as given in ChEMBL document CHEMBL5729331, “Small molecule activators of nicotinamide phosphoribosyltransferase (NAMPT) and uses thereof” (2022).

Molecular target: Nicotinamide phosphoribosyltransferase (Homo sapiens, UniProt P43490)
Assay: Enzyme Assay and NMN Detection: NAMPT reaction was performed in 50 mM HEPES, pH 7.5, containing 5 mM MgCl2, 0.1% Prionex, 0.005% Tween 20, and 1 mM TCEP at room temperature in Greiner 384-well black polypropylene plates. […] Following 2 h incubation the reaction was stopped by addition 2.5 ul 20% acetophenone in dimethyl sulfoxide (DMSO) and 2.5 ul 2 MKOH. Plates were centrifuges and added with 10.5 ul 88% formic acid. […] The increased concentration of NMN was determined from a calibration curve obtained at the time of experiment.

Sequence of Nicotinamide phosphoribosyltransferase (P43490 whole entry): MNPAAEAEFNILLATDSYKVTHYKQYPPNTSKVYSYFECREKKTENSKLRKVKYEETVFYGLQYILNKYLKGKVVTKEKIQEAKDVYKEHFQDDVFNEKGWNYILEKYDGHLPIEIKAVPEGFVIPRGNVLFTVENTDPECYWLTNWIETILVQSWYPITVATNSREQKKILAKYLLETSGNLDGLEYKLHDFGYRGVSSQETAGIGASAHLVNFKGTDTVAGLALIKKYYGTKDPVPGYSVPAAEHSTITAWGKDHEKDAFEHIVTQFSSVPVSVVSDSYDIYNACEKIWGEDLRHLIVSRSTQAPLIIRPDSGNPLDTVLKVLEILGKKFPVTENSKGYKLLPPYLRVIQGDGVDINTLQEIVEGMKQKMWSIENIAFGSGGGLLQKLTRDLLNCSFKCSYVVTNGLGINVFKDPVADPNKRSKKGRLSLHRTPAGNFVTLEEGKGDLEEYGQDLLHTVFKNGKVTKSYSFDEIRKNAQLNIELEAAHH

Row | SMILES | EC50 [µM]
1 | NC(=O)c1ccc(NC(=O)NCc2ccncc2)nc1 | > 20
2 | CCOC(=O)c1ccc(NC(=O)NCc2ccncc2)nc1 | > 20
3 | CCOC(=O)c1ccc(NC(=O)NCc2ccncc2)cn1 | > 20
